In patent US9242984B2, “Pyrazolyl derivatives as Syk inhibitors” (Merck Sharp & Dohme Corp., priority 2012, dated 2016) one finds IC50 data, which are given here for 32 compounds.

Structures are written as SMILES. Some results are limits rather than exact numbers.

One test has as its target T1, recombinant human Syk (GST-hSyk fusion protein) (Homo sapiens, UniProt P43405).
T1 construct: purchased Carna Biosciences 08-176
The test can be described thus: Homogeneous Time-Resolved Fluorescence (HTRF) assay for the recombinant human Syk enzyme. The format is biochemical. Conditions: 10-dose titration, 25 μM ATP; read-out: rhSYK IC50. In outline:
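GST-hSyk (5 pM) preincubated 10 min with compound (0.1% DMSO) in 15 mM Tris-HCl pH 7.5, 2 mM DTT; reaction started with 250 nM biotinylated peptide, 5 mM Mg, 25 μM ATP, 45 min, room temperature. EDTA quench, Eu-anti-phosphotyrosine/SA-APC HTRF read after 30 min; IC50 from 10-dose titration (10 μM–0.508 nM), four-parameter fit.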
`Cc1cc(Nc2nccc(C(F)(F)F)n2)cc(-c2cnn(C(C)(C)CC#N)c2)c1` [Example 9.1, 3-methyl-3-[4-(3-methyl-5-{[4-(trifluoromethyl)pyrimidin-2-yl]amino}phenyl)-1H-pyrazol-1-yl]butanenitrile]: the IC50 was 9 nM. On the same count and under the same terms, as for `Cc1cc(Nc2nccc(C)n2)cc(-c2cnn(C3CCCC(O)C3O)c2)c1` (stereo not shown) [Example 10.8, 3-(4-{3-methyl-5-[(4-methylpyrimidin-2-yl)amino]phenyl}-1H-pyrazol-1-yl)cyclohexane-1,2-diol], the figure is 7.8 nM; as for `Cc1cc(Nc2nccc(C)n2)cc(-c2cnn(C3CCCC(O)C3O)c2)c1` (stereo not shown) [Example 10.9, 3-(4-{3-methyl-5-[(4-methylpyrimidin-2-yl)amino]phenyl}-1H-pyrazol-1-yl)cyclohexane-1,2-diol], 4.8 nM. On the same count and under the same terms, under `Cc1cc(Nc2nccc(C)n2)cc(-c2cnn(C3CCCC(O)C3O)c2)c1` (stereo not shown) [Example 10.10, 3-(4-{3-methyl-5-[(4-methylpyrimidin-2-yl)amino]phenyl}-1H-pyrazol-1-yl)cyclohexane-1,2-diol] stands 29.4 nM; under `Cc1cc(Nc2nccc(C3CC3)n2)cc(-c2cnn(C[C@@H](O)C(=O)O)c2)c1` [Example 11.1, (R)-3-(4-(3-(4-cyclopropylpyrimidin-2-ylamino)-5-methylphenyl)-1H-pyrazol-1-yl)-2-hydroxypropanoic acid], 6.2 nM.

The test is the same for the next values; noted with them: IC50 class; 10-dose titration, 25 μM ATP; read-out: rhSYK Activity.
With `Cc1cc(Nc2nccc(C(F)(F)F)n2)cc(-c2cnn(C3CCC(C(N)=O)C(C)(C)C3)c2)c1` (stereo not shown) [Example 8.7, 2,2-dimethyl-4-[4-(3-methyl-5-{[4-(trifluoromethyl)-pyrimidin-2-yl]amino}-phenyl)-1H-pyrazol-1-yl]cyclohexane-carboxamide], the IC50 was at most 100 nM.

With `Cc1cc(Nc2nccc(C(F)(F)F)n2)cc(-c2cnn(CCCC(N)=O)c2)c1` [Example 8.9, 4-[4-(3-methyl-5-{[4-(trifluoromethyl)-pyrimidin-2-yl]amino}phenyl)-1H-pyrazol-1-yl]butanamide], the IC50 was at most 100 nM. For `Cc1cc(Nc2nccc(C)n2)cc(-c2cnn(C(C)(C)C(N)=O)c2)c1` [Example 8.10, 2-methyl-2-(4-{3-methyl-5-[(4-methyl-pyrimidin-2-yl)amino]-phenyl}-1H-pyrazol-1-yl)propanamide], the IC50 lay within 100 to 1000 nM. The same measure, in the same setting: under `Cc1cc(Nc2nccc(C(F)(F)F)n2)cc(-c2cnn(CC(O)c3ccc(C(N)=O)cc3)c2)c1` (stereo not shown) [Example 8.12, 4-{1-hydroxy-2-[4-(3-methyl-5-{[4-(trifluoromethyl)-pyrimidin-2-yl]amino}-phenyl)-1H-pyrazol-1-yl]ethyl}benzamide] stands at most 100 nM; under `Cc1cc(Nc2nccc(C(F)(F)F)n2)cc(-c2cnn(C[C@@H](O)C(N)=O)c2)c1` [Example 8.13, (2r)-2-hydroxy-3-[4-(3-methyl-5-{[4-(trifluorometh-yl)pyrimidin-2-yl]amino}phenyl)-1H-pyrazol-1-yl]propanamide], at most 100 nM; under `Cc1cc(Nc2nccc(C(F)(F)F)n2)cc(-c2cnn(C[C@H](O)C(N)=O)c2)c1` [Example 8.16, (2s)-2-hydroxy-3-[4-(3-methyl-5-{[4-(trifluorometh-yl)pyrimidin-2-yl]amino}phenyl)-1H-pyrazol-1-yl]propanamide], at most 100 nM.

For `Cc1cc(Nc2nccc(OCCO)n2)cc(-c2cnn(C3CCC(C(N)=O)CC3)c2)c1` (stereo not shown) [Example 8.17, 4-[4-(3-{[4-(2-hydroxy-ethoxy)pyrimidin-2-yl]amino}-5-methylphenyl)-1H-pyrazol-1-yl]-cyclo-hexanecarboxamide], the IC50 is at most 100 nM.

Consider `Cc1cc(Nc2nccc(C(F)(F)F)n2)cc(-c2cnn(C3CCC(C(N)=O)CC3)c2)c1` (stereo not shown) [Example 8.18, 4-[4-(3-methyl-5-{[4-(trifluorometh-yl)pyrimidin-2-yl]amino}phenyl)-1H-pyrazol-1-yl]-cyclohexane-carboxamide], for which the IC50 is at most 100 nM. Same read-out and setting: as for `Cc1cc(Nc2nccc(C(F)(F)F)n2)cc(-c2cnn(C3CCC(C(N)=O)C(C)(C)C3)c2)c1` (stereo not shown) [Example 8.19, 2,2-dimethyl-4-[4-(3-methyl-5-{[4-(trifluorometh-yl)pyrimidin-2-yl]amino}phenyl)-1H-pyrazol-1-yl]-cyclohexanecarbox-amide], the figure is at most 100 nM; as for `Cc1cc(Nc2nccc(C(F)(F)F)n2)cc(-c2cnn(C(C)C(N)=O)c2)c1` (stereo not shown) [Example 8.20, 2-[4-(3-methyl-5-{[4-(trifluorometh-yl)pyrimidin-2-yl]amino}phenyl)-1H-pyrazol-1-yl]propanamide], at most 100 nM; as for `Cc1cc(Nc2nccc(C(F)(F)F)n2)cc(-c2cnn(CC(C)(O)C(N)=O)c2)c1` (stereo not shown) [Example 8.23, 2-hydroxy-2-methyl-3-[4-(3-methyl-5-{[4-(trifluoromethyl)-pyrimidin-2-yl]amino}-phenyl)-1H-pyrazol-1-yl]propanamide], at most 100 nM. Same read-out and setting: under `Cc1cc(Nc2nccc(C(F)(F)F)n2)cc(-c2cnn(CC(O)c3ccc(C(N)=O)cc3)c2)c1` (stereo not shown) [Example 8.24, 4-{1-hydroxy-2-[4-(3-methyl-5-{[4-(trifluorometh-yl)pyrimidin-2-yl]amino}-phenyl)-1H-pyrazol-1-yl]ethyl}-benzamide] stands at most 100 nM; under `Cc1cc(Nc2nccc(C(F)(F)F)n2)cc(-c2cnn(C(C)(C)CC#N)c2)c1` [Example 9.1, 3-methyl-3-[4-(3-methyl-5-{[4-(trifluoromethyl)pyrimidin-2-yl]amino}phenyl)-1H-pyrazol-1-yl]butanenitrile], at most 100 nM. As to `Cc1cc(Nc2nccc(C(F)(F)F)n2)cc(-c2cnn(C3CCCC(O)C3O)c2)c1` (stereo not shown) [Example 10.2, 3-[4-(3-methyl-5-{[4-(trifluorometh-yl)pyrimidin-2-yl]amino}phen-yl)-1H-pyrazol-1-yl]cyclohexane-1,2-diol], the IC50 was at most 100 nM.

With `Cc1cc(Nc2nccc(C(F)(F)F)n2)cc(-c2cnn(C3CCCC(O)C3O)c2)c1` (stereo not shown) [Example 10.3], the IC50 is at most 100 nM. In the case of `Cc1cc(Nc2nccc(C)n2)cc(-c2cnn(C3CCCC(O)C3O)c2)c1` (stereo not shown) [Example 10.8, 3-(4-{3-methyl-5-[(4-methylpyrimidin-2-yl)amino]phenyl}-1H-pyrazol-1-yl)cyclohexane-1,2-diol], the IC50 is at most 100 nM.

As for `Cc1cc(Nc2nccc(C)n2)cc(-c2cnn(C3CCCC(O)C3O)c2)c1` (stereo not shown) [Example 10.9, 3-(4-{3-methyl-5-[(4-methylpyrimidin-2-yl)amino]phenyl}-1H-pyrazol-1-yl)cyclohexane-1,2-diol], the IC50 is at most 100 nM. For the compound `Cc1cc(Nc2nccc(C)n2)cc(-c2cnn(C3CCCC(O)C3O)c2)c1` (stereo not shown) [Example 10.10, 3-(4-{3-methyl-5-[(4-methylpyrimidin-2-yl)amino]phenyl}-1H-pyrazol-1-yl)cyclohexane-1,2-diol], the IC50 was at most 100 nM. The same measure, in the same setting: under `Cc1cc(Nc2nccc(C3CC3)n2)cc(-c2cnn(C[C@@H](O)C(=O)O)c2)c1` [Example 11.1, (R)-3-(4-(3-(4-cyclopropylpyrimidin-2-ylamino)-5-methylphenyl)-1H-pyrazol-1-yl)-2-hydroxypropanoic acid] stands at most 100 nM; under `COc1ccnc(Nc2cc(C)cc(-c3cnn(C[C@H](O)C(=O)O)c3)c2)n1` [Example 11.2, (2S)-2-hydroxy-3-(4-{3-[(4-methoxy-pyrimidin-2-yl)amino]-5-methylphenyl}-1H-pyrazol-1-yl)-propanoic acid], at most 100 nM; under `Cc1cc(Nc2nccc(C)n2)cc(-c2cnn(C[C@H](O)C(=O)O)c2)c1` [Example 11.3, (2S)-2-hydroxy-3-(4-{3-methyl-5-[(4-methylpyrimidin-2-yl)amino]phenyl}-1H-pyrazol-1-yl)-propanoic acid], at most 100 nM. On to `COc1ccnc(Nc2cccc(-c3cnn(C[C@H](O)C(=O)O)c3)c2)n1` [Example 11.4, (2S)-2-hydroxy-3-(4-{3-[(4-methoxy-pyrimidin-2-yl)-amino]phenyl}-1H-pyrazol-1-yl)-propanoic acid], for which the IC50 is at most 100 nM. Still for that read-out and setting: under `Cc1cc(Nc2nccc(C3CC3)n2)cc(-c2cnn(C[C@H](O)C(=O)O)c2)c1` [Example 11.5, (2S)-3-(4-{3-[(4-cyclopropylpyrimidin-2-yl)amino]-5-methyl-phenyl}-1H-pyrazol-1-yl)-2-hydroxy-propanoic acid] stands at most 100 nM; under `COc1nc(Nc2cc(C)cc(-c3cnn(C[C@H](O)C(=O)O)c3)c2)ncc1Cl` [Example 11.6, (2S)-3-(4-{3-[(5-chloro-4-methoxy-pyrimidin-2-yl)-amino]-5-methyl-phenyl}-1H-pyrazol-1-yl)-2-hydroxy-propanoic acid], at most 100 nM. On the same count and under the same terms, under `Cc1cc(Nc2ncc(Cl)c(C)n2)cc(-c2cnn(C[C@@H](O)C(=O)O)c2)c1` [Example 11.7, (2R)-3-(4-{3-[(5-chloro-4-methyl-pyrimidin-2-yl)-amino]-5-methyl-phenyl}-1H-pyrazol-1-yl)-2-hydroxy-propanoic acid] stands at most 100 nM; under `COc1ccnc(Nc2cc(C)cc(-c3cnn(C[C@@H](O)C(=O)O)c3)c2)n1` [Example 11.8, (2R)-2-hydroxy-3-(4-{3-[(4-methoxy-pyrimidin-2-yl)-amino]-5-methyl-phenyl}-1H-pyrazol-1-yl)propanoic acid], at most 100 nM; under `COc1nc(Nc2cc(C)cc(-c3cnn(C[C@@H](O)C(=O)O)c3)c2)ncc1Cl` [Example 11.9, (2R)-3-(4-{3-[(5-chloro-4-methoxy-pyrimidin-2-yl)-amino]-5-methyl-phenyl}-1H-pyrazol-1-yl)-2-hydroxy-propanoic acid], at most 100 nM.

With `Cc1cc(Nc2nccc(C)n2)cc(-c2cnn(C[C@@H](O)C(=O)O)c2)c1` [Example 11.10, (2R)-2-hydroxy-3-(4-{3-methyl-5-[(4-methylpyrimidin-2-yl)amino]phenyl}-1H-pyrazol-1-yl)propanoic acid], the IC50 was at most 100 nM. Regarding `COc1ccnc(Nc2cccc(-c3cnn(C[C@@H](O)C(=O)O)c3)c2)n1` [Example 11.11, (2R)-2-hydroxy-3-(4-{3-[(4-methoxy-pyrimidin-2-yl)amino]phenyl}-1H-pyrazol-1-yl)propanoic acid], the IC50 was at most 100 nM. In the case of `Cc1cc(Nc2ncc(F)c(C)n2)cc(-c2cnn(C[C@@H](O)C(=O)O)c2)c1` [Example 11.13, (2R)-3-(4-{3-[(5-fluoro-4-methylpyrimidin-2-yl)amino]-5-methylphenyl}-1H-pyrazol-1-yl)-2-hydroxypropanoic acid], the IC50 is at most 100 nM.

On to `Cc1cc(Nc2nccc(OC(C)C)n2)cc(-c2cnn(C[C@@H](O)C(=O)O)c2)c1` [Example 11.14, (2R)-2-hydroxy-3-[4-(3-methyl-5-{[4-(1-methylethoxy)-pyrimidin-2-yl]amino}-phenyl)-1H-pyrazol-1-yl]propanoic acid], for which the IC50 was at most 100 nM. With `COc1nc(Nc2cc(C)cc(-c3cnn(C[C@@H](O)C(=O)O)c3)c2)ncc1Cl` [Example 11.15, (2R)-3-(4-{3-[(5-chloro-4-methoxy-pyrimidin-2-yl)amino]-5-methyl-phenyl}-1H-pyrazol-1-yl)-2-hydroxy-propanoic acid], the IC50 is at most 100 nM.
